We go through 13 compounds from US7923461B2, “TNF-α production inhibitors” (Santen Pharmaceutical Co., Ltd., priority 2000, dated 2011).

One data set concerns TNF-α production. The experiment in a line: Inhibitory effects on TNF-α production induced by lipopolysaccharide (LPS) stimulation, in vivo test. The arrangement: species or system rat. The note with it: Rattus norvegicus, 2 h, female rats, plasma TNF-α (ELISA) two hours after LPS, read-out: Inhibition rate (%) of TNF-α production; for inhibition in vivo at 10 mg/kg: oral administration of 10 mg/kg immediately after LPS to footpad. The procedure: Inhibitory effects on TNF-α production induced by lipopolysaccharide (LPS) stimulation were studied by in vivo tests according to the method of Tsuji et al. (Inflamm res. 46 (1997) 193-198).
Female rats (five per group), body weight of about 200 g, about eight weeks old, were used as test animals. LPS from Salmonella was dissolved in physiological saline to prepare an LPS solution (1 mg/ml). Each test substance was dissolved or uniformly suspended in a 1% methylcellulose solution to give test substance-preparation liquids.
The above-mentioned LPS solution (0.5 ml/kg) was administered to a footpad of the rat. Immediately after the LPS administration, the test substance-preparation liquid (containing 10 mg/kg or 3 mg/kg test substance) was orally administered. Two hours after the LPS administration, blood was collected from abdominal aorta and was centrifuged at 4° C. and 3000 rpm for ten minutes. TNF-α levels in the obtained plasma were measured with a rat TNF-α-specific ELISA kit. TNF-α was not observed in the plasma with respect to an LPS-non-administered group (control).
Inhibition rates of TNF-α production of the test substances were determined by the following equation. Inhibition rate (%)=[(A−B)/A]×100 A: TNF-α level in plasma of test substance-nonadministered group B: TNF-α level in plasma of test substance-administered group (Results)
A general note: ELISA stands for enzyme-linked immunosorbent assay.

By melting point is commonly meant the temperature of the solid-liquid transition.

`O=C(NCCCc1ccncc1)N(CCC12CC3CC(CC(C3)C1)C2)C1CCCC1` [Compound No. 1-70, 1-[2-(1-Adamantyl)ethyl]-1-cyclopentyl-3-[3-(4-pyridyl)propyl]urea] showed a melting point of 135.5 to 137.5 °C. In addition, in the data set on TNF-α production, the inhibition in vivo at 10 mg/kg turned out to be 87.9%.

With `O=C(NCCCc1ccncc1)N(CC=Cc1ccccc1)CCC12CC3CC(CC(C3)C1)C2` [Compound No. 1-34, 1-[2-(1-Adamantyl)ethyl]-1-cinnamyl-3-[3-(4-pyridyl)propyl]urea], the melting point was 130 to 134.5 °C. For the same compound, the inhibition in vivo at 10 mg/kg with TNF-α production amounted to 70.8%.

Turning to `CC(C)N(CCC12CC3CC(CC(C3)C1)C2)C(=O)NCCCc1ccncc1` [Compound No. 1-68, 1-[2-(1-Adamantyl)ethyl]-1-isopropyl-3-[3-(4-pyridyl)propyl]urea], the melting point fell in the range of 132 to 134 °C. In the data set on TNF-α production, the inhibition in vivo at 10 mg/kg was determined as 79%.

With `CC=CCN(CCC12CC3CC(CC(C3)C1)C2)C(=O)NCCCc1ccncc1` [Compound No. 1-25, 1-[2-(1-Adamantyl)ethyl]1-(2-butenyl)-3-[3-(4-pyridyl)propyl]urea], the melting point fell in the range of 89.5 to 93.5 °C. Further, the inhibition in vivo at 10 mg/kg in the data set on TNF-α production worked out at 89%.

In the case of `CC(CNC(=O)N(CCN(C)C(=O)OC(C)(C)C)CCC12CC3CC(CC(C3)C1)C2)Cc1ccncc1` (single isomer, unassigned; (+)) [Compound No. 1-139, (+)-1-[2-(1-Adamantyl)ethyl]-1-[2-[N-(t-butoxycarbonyl)-N-methylamino]ethyl]-3-[2-methyl-3-(4-pyridyl)propyl]urea], the melting point was in the range of 122.7 to 123.7 °C. The inhibition in vivo at 10 mg/kg in the data set with TNF-α production is 94.1%.

`O=C(NCCCc1ccncc1)N(CCC(F)(F)F)CCC12CC3CC(CC(C3)C1)C2` [Compound No. 1-24, 1-[2-(1-Adamantyl)ethyl]-3-[3-(4-pyridyl)propyl]-1-(3,3,33-trifluoropropyl)urea] showed a melting point of 107.5 to 109 °C. In addition, the inhibition in vivo at 10 mg/kg in the data set on TNF-α production came out at 95.8%.

In turn, `O=C(NCCCc1ccncc1)N(CCC12CC3CC(CC(C3)C1)C2)CC1CC1` [Compound No. 1-22, 1-[2-(1-Adamantyl)ethyl]-1-cyclopropylmethyl-3-[3-(4-pyridyl)propyl]urea] yielded a melting point of 123 to 125 °C. In addition, in the data set on TNF-α production, the inhibition in vivo at 10 mg/kg came to 87%.

`CCCCCN(CCC12CC3CC(CC(C3)C1)C2)C(=O)NCCCc1cccnc1` [Compound No. 1-84, 1-[2-(1-Adamantyl)ethyl]-1-pentyl-3-[3-(3-pyridyl)propyl]urea] gave a melting point of 99.9 to 105.2 °C. In the data set with TNF-α production (oral administration of 3 mg/kg immediately after LPS to footpad), the inhibition in vivo at 3 mg/kg was 35.5%.

`COCCN(CCC12CC3CC(CC(C3)C1)C2)C(=O)NCCCc1ccncc1` [Compound No. 1-18, 1-[2-(1-Adamantyl)ethyl]-1-(2-methoxyethyl)-3-[3-(4-pyridyl)propyl]urea] showed a melting point of 101.5 to 104.5 °C. Besides, the inhibition in vivo at 10 mg/kg in the data set with TNF-α production stood at 78.9%.

`O=C(NCCCc1ccncc1)N(CCC12CC3CC(CC(C3)C1)C2)Cc1ccccc1` [Compound No. 1-43, 1-[2-(1-Adamantyl)ethyl]-1-benzyl-3-[3-(4-pyridyl)propyl]urea]: the melting point was in the range of 130.5 to 135 °C. In addition, in the data set on TNF-α production, the inhibition in vivo at 10 mg/kg came to 67.6%.

Turning to `CCCCCCCCCCN(CCC12CC3CC(CC(C3)C1)C2)C(=O)NCCCc1ccncc1` [Compound No. 1-32, 1-[2-(1-Adamantyl)ethyl]-1-decyl-3-[3-(4-pyridyl)propyl]urea], the melting point was in the range of 75 to 76 °C. Also, the inhibition in vivo at 10 mg/kg with TNF-α production came out at 62.4%.

In turn, `CC(C)=CCN(CCC12CC3CC(CC(C3)C1)C2)C(=O)NCCCc1ccncc1` [Compound No. 1-31, 1-[2-(1-Adamantyl)ethyl]-1-(3-methyl-2-butenyl)-3-[3-(4-pyridyl)propyl]urea] registered a melting point of 93 to 96 °C. Besides, in the data set on TNF-α production, the inhibition in vivo at 10 mg/kg was 92.6%.

`O=C(NCCCc1ccncc1)N(CCC12CC3CC(CC(C3)C1)C2)Cc1ccco1` [Compound No. 1-42, 1-[2-(1-Adamantyl)ethyl]-1-furfuryl-3-[3-(4-pyridyl)propyl]urea] registered a melting point of 128 to 130 °C. The inhibition in vivo at 10 mg/kg in the data set with TNF-α production was 86.7%.
